Measurements from PubChem BioAssay (NCI).
Where “and” joins values, the source holds several entries; their conditions need not be identical. Identical values can stand only once.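 In this assay, cells in 96-well plates receive the compound at five concentrations for 48 hours. Endpoints are linearly interpolated between the surrounding concentrations. GI50 is the concentration that inhibits growth by half. TGI denotes the concentration required for complete inhibition of growth.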

System: P388 leukemia
Assay: NCI tumour cell line growth inhibition, 48 h

**Q.** COc1nc(C(Cl)(Cl)Cl)c(Cl)c(OC)c1Cl was tested. Which TGI did it give?
**A.** 43 µM

**Q.** Which results are given for N[C@@H](Cc1ccc(N(CCCl)CCCl)cc1)C(=O)O?
**A.** GI50: 1.79 µM; TGI: 35.9 µM and 42.9 µM
